Assay results: US8119355B2, “Biomarkers for cancer sensitivity and uses thereof” (The UAB Research Foundation, priority 2006, dated 2012)

Experiments:
[1] = tested on: COLO 205 human colon cancer cells; assay: cell viability, ATPLite assay, serum-free condition; type: cell-based; details: for effect on cell viability: 48 h; for cells killed: incubation time (24 or 48 h) not given
Experimental: (§1) Cell viability analysis: To examine the effect of the serum, the cells (2×10^4) were plated onto well of a 96-well microplate and cultured in complete culture medium at 37° C. for 24 h, washed with serum-free medium, and further incubated in 100 μl of complete medium or serum-free medium at 37° C. for the indicated times. Cell viability was assessed by measurement of cellular ATP levels using ATPlite™-M luminescence assay system (PerkinElmer, Inc., Waltham, Mass.) according to the manufacturer's instructions, and determined as a percentage relative to the luminescence value of cells, which were cultured in complete medium, used as a control. The assay of cell viability was repeated in triplicate experiments. Data were statistically analyzed by the Student t test. In case of the Student t test, if variance of homogeneity was rejected (P<0.05 by F test), the Welch test was applied. Probability values (P-values) less than 0.05 were considered to be statistically significant. All P-values were rounded to four decimal places.
(§2) To evaluate the effect of TRA-8 in serum-free condition, the cells were cultured as described above, washed with serum-free medium and treated with or without TRA-8 or chemotherapeutic agents in 100 μl of serum-free medium at 37° C. for the indicated times. Cell viability was assessed using ATPLite™ assay (PerkinElmer, Inc., Waltham, Mass.) and determined as a percentage relative to the luminescence value of untreated cells used as a control. The assay of cell viability was repeated in triplicate experiments.

[2] = tested on: WiDr human colon cancer cells; assay: as above; type: cell-based; details: for cells killed: incubation time (24 or 48 h) not given
Experimental: as §1, §2

[3] = tested on: COLO 205 tumors; assay: COLO 205 xenograft model, tumor size; type: in vivo, athymic nude mice; details: TRA-8 10 mg/kg intraperitoneally days 16 and 20; CPT-11 33 mg/kg intravenously days 17 and 21
Experimental: Preparation of sera from tumor-bearing mice. COLO 205 cells (1×10^7) were inoculated subcutaneously into athymic nude mice on day 0. The mice were grouped randomly. Each of the groups consisted of 3 mice. TRA-8 (10 mg/kg) was administered intraperitoneally to mice on days 16 and 20. CPT-11 (33 mg/kg) was administered intravenously to mice on days 17 and 21. Length and width of solid tumors were measured twice weekly. Tumor volume (mm^3) was calculated as axb^2/2, where a and b are the length and the width (mm) of the tumor, respectively. Tumor size was determined as a percentage relative to the tumor volume on day 16. Sera were obtained from the tumor-bearing mice on day 23.

SMILES: O=C1[O][Pt]2([NH][C@@H]3CCCC[C@H]3[NH]2)[O]C1=O [oxaliplatin]
- effect on cell viability ([1]; 50 μM agent): affected cell viability
- cells killed ([1]; 50 μM agent): 41%
- effect on cell viability ([2]; 50 μM oxaliplatin, 24 h): significant effect
- effect on cell viability ([2]; 50 μM oxaliplatin, 48 h): affected cell viability
- cells killed ([2]; 50 μM oxaliplatin): 99%

SMILES: CC(=O)O[C@H]1C(=O)[C@@]2(C)[C@H]([C@H](OC(=O)c3ccccc3)[C@]3(O)C[C@H](OC(=O)[C@H](O)[C@@H](NC(=O)c4ccccc4)c4ccccc4)C(C)=C1C3(C)C)[C@]1(OC(C)=O)CO[C@@H]1C[C@@H]2O [paclitaxel]
- effect on cell viability ([1]; 1 μM paclitaxel): affected cell viability
- cells killed ([1]; 1 μM paclitaxel): 62%
- effect on cell viability ([2]; 1 μM paclitaxel, 48 h): affected cell viability
- cells killed ([2]; 1 μM paclitaxel): 72%

SMILES: CCc1c2c(nc3ccc(OC(=O)N4CCC(N5CCCCC5)CC4)cc13)-c1cc3c(c(=O)n1C2)COC(=O)[C@]3(O)CC [CPT-11]
- effect on cell viability ([1]; 50 μM agent): significant effect
- cells killed ([1]; 50 μM agent): 71%
- antitumor efficacy (tumor size) [3]: not antitumor effects
